Read-outs that look alike come from different tables or passages of the source.
Columns and labels:
[1] = tested on: HIV-1; assay: microbe, parasite or virus in culture; details: Human immunodeficiency virus 1, CCRF-CEM
How it was run: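 Infection used 100 CCID50 per mL on 5×10^5 cells/mL, followed by exposure to serial compound dilutions. Read-out: microscopic giant cell scoring after 4 days (CEM); trypan blue viable cell count after 5 days (MT-4).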

[2] = Toxicity to MT-4 cells; format: cell-based, human; details: human, mock-infected MT-4 cells; Table 6; mean of two or more repeat experiments; read-out: CC50 MT4: CC50 for toxicity to MT-4 cells
Procedure: (§1) Cells were infected with HIV-1 as previously described [Balzarini et al. AIDS (1991), 5, 21–28]. Briefly, 5×10^5 cells per milliliter were infected with HIV-1 or HIV-2 at 100 CCID50 (50% cell culture infective dose) per milliliter of cell suspension. Then 100 μL of the infected cell suspension was transferred to microtiter plate wells and mixed with 100 μL of the appropriate dilutions of the test compounds. After 4 days giant cell formation was recorded microscopically in the HIV-infected cell cultures [CEM], and after 5 days the number of viable cells was determined by trypan blue staining of the HIV-infected cell cultures [MT4].
(§2) The data columns are, in order: • HIV1 MT4: EC50 in μM for inhibition of HIV-1 in MT4 cells. • HIV2 MT4: EC50 in μM for inhibition of HIV-2 in MT4 cells. • CC50 MT4: CC50 in μM for toxicity to MT-4 cells. • HIV1 CEM: EC50 in μM for inhibition of HIV-1 in CEM cells. • HIV2 CEM: EC50 in μM for inhibition of HIV-2 in CEM cells. • HIV2 CEM-TK-: EC50 in μM for inhibition of HIV-2 in CEM/TK^− cells. • CC50 CEM: CC50 in μM for toxicity to CEM cells. • EC50 MSV: EC50 in μM for inhibition of MSV • MCC MSV: Minimum cytotoxic concentration in MSV assay

[3] = Toxicity in C8166 cells (MTT-Formazen); format: cell-based; details: human, Table 3
How it was run: (§3)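 C8166 cells (4×10^4/well) in RPMI 1640 with 10% calf serum, mixed with 5-fold compound dilutions, then given 10 CCID50 HIV-1 III-B and kept 5–7 days. Viability of infected and uninfected cells measured by MTT-formazan; duplicates on at least two occasions, averaged.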

[4] = tested on: III-B strain of HIV-1; assay: microbe, parasite or virus in culture; format: cell-based
How it was run: as §3

[5] = tested on: HIV-2; assay: Inhibition of HIV-2 in CEM/TK- cells; format: cell-based; details: Human immunodeficiency virus 2, CEM-TK(-)
How it was run: (§4)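 Giant cell formation, recorded under the microscope on day 4, served as the end point for CEM cells, while MT-4 viability was determined by trypan blue exclusion on day 5. Cell suspensions (5×10^5/mL) received virus at 100 CCID50/mL before compound addition.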

[6] = tested on: hog liver esterase; assay: Incubation with hog liver esterase; format: in vitro ADME; details: 1 mM, 37° C., Tris-HCl buffer containing 5 mM MgCl2
Procedure: This metabolites co-eluted with the predominant metabolite (X) that was found in the cell extracts after incubation of the intact cells with [^3H] 324. metabolite X corresponds to a compound of formula (10), wherein Y is oxygen, X^1 is NH, X^2 is oxygen, B is thymine, R^1 is Me, R^2 is hydrogen.

[7] = target: HIV RT (Human immunodeficiency virus type 1 group M subtype B, UniProt P03366); assay: Inhibition of HIV reverse transcriptase; format: biochemical; details: Table 4
[8] = Toxicity to CEM cells; format: cell-based, human; details: human, mock-infected CEM cells; Table 6; mean of two or more repeat experiments
[9] = tested on: HIV-1; assay: Inhibition of HIV-1 in MT4 cells; format: cell-based; details: Human immunodeficiency virus 1, MT4; Table 6; mean of two or more repeat experiments; read-out: HIV1 MT4: EC50 for inhibition of HIV-1 in MT4 cells
Procedure: as §1, §2

[10] = tested on: HIV-2; assay: Inhibition of HIV-2 in MT4 cells; format: cell-based; details: Human immunodeficiency virus 2, MT4, read-out: HIV2 MT4: EC50 for inhibition of HIV-2 in MT4 cells
Procedure: as §1, §2

[11] = tested on: Moloney Sarcoma Virus [MSV]; assay: MSV-induced tumour formation and survival in NMRI mice; format: in vivo; details: MSV infected mice
Procedure: Drug doses are 50[low ] or 200 [high] mg/kg/day given i.p. for 4 days starting 1 hour before MSV inoculation.
In Vivo Testing Inhibitory Effects of Test Compounds on the Initiation of MSV-Induced Tumour Formation in NRMI Mice and on the Survival of MSV Innoculated NMRI Mice.
Mice infected with Moloney Sarcoma Virus [MSV] were treated daily with either placebo, or d4T [at one of two doses] or with compound 324 at one of the same [equi-molar] doses.
Two- to three-day old NMRI mice (weighing—2 gram) were innoculated subcutaneously (s.c.) in the left hind leg with 50 μl MSV (100 foci forming units, as measured by in vitro determination of the virus-induced transformation of murine C3H embryo fibroblast cells). At 4 to 5 days post-infection, tumours develop and rapidly increase in volume upon further aging of the mice. Within 10 to 12 days post-infection, mice (then weighing—5 to 6 gram) die from the viral infection. Drug treatment started 1 hour prior to infection of the virus, and further compound administration was given daily i.p. for an additional 3 days. The mean day of tumour initiation (±standard deviation) and the mean day of survival of the mice (±standard deviation) was calculated and statistical significance of the average delay of tumour formation and the mean day of survival in the treated groups versus the untreated (control) group was assessed by two-tailed student's t-test.

[12] = tested on: HIV-2; assay: Inhibition of HIV-2 in CEM cells (giant cell formation); format: cell-based
How it was run: as §4

[13] = tested on: HIV1 d4T-Sensitive; assay: HIV1 in HeLa cells, d4T-sensitive strain; format: cell-based, HIV-1; details: Human immunodeficiency virus 1, HeLa; Table 4
[14] = tested on: HIV1 d4T-Resistant; assay: HIV1 in HeLa cells, d4T-resistant strain; format: cell-based, HIV-1; details: Human immunodeficiency virus 1, HeLa, read-out: EC50 HeLa HIV1 d4T-Resistant
[15] = tested on: HIV-1 (GB8 or IIIB strains); assay: Anti-HIV-1 activity in JM cells; format: cell-based; details: Human immunodeficiency virus 1, IIIB; HIV1 in JM; Table 2
Procedure: C8166 cells. Cells were grown in RPMI 1640 with 10% calf serum. 4×10^4 cells per microtiter plate well were mixed with 5-fold dilutions of compound prior to addition of 10 CCID50 units of III-B strain of HIV-1 and incubated for 5–7 days (Betbeder et al. Antiviral Chem. Chemother. 1, 241–247, 1990). Formation of syncytia was examined from 2 days post-infection. Culture fluid was collected at 5–7 days and gp120 antigen production measured by ELISA (Mahmood and Hay, J. Immunol. Meth., 151, 9–13, 1992). […] Cell viability of infected and uninfected cells were assessed by the MTT-Formazen method (Pauwels et al. J. Virol. Meth. 20, 309–321, 1988).
JM cells JM cells, which are relatively resistant to the antiviral effects of AZT and a number of its derivatives, were infected with HIV-1 strains and the antiviral and toxic effects of compounds assessed as for C8166 cells. Both GB8 or IIIB strains of HIV1 were used, with no delectable differences in the end-points noted.
Each assay was carried out in duplicate, on at least two separate occasions, and data quoted are the average of each separate assay.

[16] = Human immunodeficiency virus 1, C8166, Table 4, read-out: EC50 8166 HIV1
[17] = Human immunodeficiency virus 1, HIV1 in C8166 cells, Table 3, read-out: Activity EC50
[18] = 50 [low] or 200 [high] mg/kg/day i.p. for 4 days

For COC(=O)C(C)NP(=O)(OCC1C=CC(n2cc(C)c(=O)[nH]c2=O)O1)Oc1ccccc1 (centres unmarked) [Compound 324, 2′,3′-dideoxy-2′,3′-didehydrothymidine 5′-(phenyl N-methoxyalaninyl) phosphoramidate], the EC50 ([1]; read-out: EC50 CEM HIV1) was 180 nM, the EC50 ([1]; read-out: HIV1 CEM: EC50 for inhibition of HIV-1 in CEM cells) was 75 nM and the CC50 at 5 days [2] was > 100000 nM. The CC50 [3] was 150000 nM, the “Selectivity CC50/EC50 × 10^3” value ([4]; HIV1 in C8166 cells, Table 3) was 46.9 × 10^3 and the EC50 [4, 16] was 3.2 nM. It also gave an EC50 [4, 17] of 3.2 nM, an EC50 ([5]; read-out: EC50 CEM TK− HIV2) of 80 nM and an EC50 ([5]; read-out: HIV2 CEM-TK-: EC50 for inhibition of HIV-2 in CEM/TK^− cells) of 75 nM. For the same compound, the “metabolite formation with hog liver esterase” value [6] was “time-dependent formation of a metabolite was observed”, the EC50 [7] was 50000 nM and the CC50 [8] was 100000 nM. For the same compound, the EC50 [9] was 81 nM, the EC50 [10] was 53 nM and the “effect on tumour appearance” value ([11]; high-dose (200 mg/kg/day i.p. for 4 days)) was “significant effect”. The “effect on tumour appearance (first disease parameter)” value ([11]; low dose (50 mg/kg/day i.p. for 4 days)) was “an effect” and the EC50 ([12]; Human immunodeficiency virus 2, CCRF-CEM, read-out: HIV2 CEM: EC50 for inhibition of HIV-2 in CEM cells) was 75 nM.

With Cc1cn([C@H]2C=C[C@@H](CO)O2)c(=O)[nH]c1=O [d4T, 2′,3′-dideoxy-2′,3′-didehydrothymidine, reference compound] the EC50 ([1]; read-out: EC50 CEM HIV1) was 500 nM, the EC50 [13] was 860 nM and the CC50 [3] was 50000 nM. For the same compound, the “Selectivity CC50/EC50 × 10^3” value [4] was 0.6 × 10^3, the EC50 [4, 16] was 80 nM and the EC50 ([4]; Human immunodeficiency virus 1, HIV1 in C8166, Table 2, read-out: EC50 C8166) was 80 nM. For the same compound, the EC50 [4, 17] was 80 nM, the EC50 ([5]; read-out: EC50 CEM TK^−) was > 100000 nM and the EC50 ([5]; read-out: EC50 CEM TK− HIV2) was > 100000 nM. For the same compound, the EC50 [14] was 3380 nM, the “EC50 HIV RT” value [7] was “Inactive” and the delay in death [11, 18] was “failed to give any detectable delay”. The “delay in tumour appearance” value [11, 18] was “failed to give any detectable delay”, the EC50 ([12]; Human immunodeficiency virus 2, CEM-TK(-), read-out: EC50 CEM TK^−) was 1200 nM and the EC50 [15] was 800 nM.

— patent publication US7018989B2, “Chemical compounds” (University College Cardiff Consultants, LTD, priority 1995, dated 2006)
